In the experiment the test system is summer wheat (TRZAS; cv. Triso). The experiment can be described thus: Reduction of damage by mesosulfuron-methyl on summer wheat (greenhouse safener test, post-emergence). Format: in vivo. More on the design: key: 0: no reduction in damage (appearance corresponding to the herbicide control); 1: slight reduction in damage; 2: distinct reduction in damage; 3: significant reduction in damage; 4: complete reduction in damage (appearance corresponding to the untreated control). The conditions noted are these: safener 100 g/ha as WP spray at early leaf stage (BBCH10-BBCH12), then mesosulfuron-methyl 40-60 g/ha; visual assessment 9-13 days after application; crop plant TRZAS. How it is done:
2.1 Relative Action of Selected Compounds of the Invention Using the Example of Reduction of Damage by Mesosulfuron-Methyl on Summer Wheat (TRZAS) The seeds of the crop plants to be treated are laid out in sandy loam in plastic pots (diameter ˜4 cm), covered with soil and grown in a greenhouse under good conditions for germination and growth. The trial plants were treated at the early leaf stage (BBCH10-BBCH12). In the course of this, the inventive compounds of the general formula (I) formulated in the form of wettable powders (WP) were sprayed onto the above-ground parts of the plants as an aqueous suspension with a water application rate corresponding to 800 l/ha with addition of wetting agent (e.g. 0.2% Genapol-LRO or 0.2% Mero) in the specified dose. This was followed by the application of the herbicide. For this purpose, mesosulfuron-methyl, formulated in the form of water-dispersible granules (WG), was sprayed onto the above-ground parts of the plants in the form of an aqueous dispersion with a water application rate corresponding to 800 l/ha with addition of wetting agent (e.g. 0.2% Genapol-LRO or 1 l/ha Biopower) in a dose of 40-60 g/ha. […] 9-13 days after application, the efficacy of the test compounds was assessed visually. […]

Consider `COC(=O)COc1nc(-c2ccc(F)cn2)n(-c2ccc(Cl)cn2)n1` [Example I.31-10, Methyl {[1-(5-chloropyridin-2-yl)-5-(5-fluoropyridin-2-yl)-1H-1,2,4-triazol-3-yl]oxy}acetate], for which the “Efficacy of the safener (efficacy code)” value worked out at 2.

The values above are taken from patent publication US12606542B2, “[(1,5-diheteroaryl-1H-1,2,4-triazol-3-yl)oxy] acetic acid derivatives as safeners for the protection of useful plants and crop plants” (BAYER AKTIENGESELLSCHAFT, priority 2020, dated 2026).
